# Assay results taken from PubChem BioAssay (NCI).
#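 1) Cells in 96-well plates. 2) Compound, 48 h, 5 concentrations. 3) Linear interpolation between surrounding doses. 4) Unreached endpoint = highest concentration. The concentration for 50% growth inhibition is given as GI50. Definition used: TGI = concentration required for complete inhibition of growth.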
# Experiments:
# Experiment in all cases: NCI-60 cell line screen, 48 h
# [1] = test system: M14 melanoma
# [2] = test system: NCI-H522 lung
# [3] = test system: SK-MEL-5 melanoma
# [4] = test system: SF-539 CNS
# [5] = test system: OVCAR-8 ovarian
# [6] = test system: BT-549 breast
# [7] = test system: U251 CNS
# [8] = test system: MDA-MB-435
# [9] = test system: TK-10 renal
# [10] = test system: SK-MEL-28 melanoma
# [11] = test system: IGROV1 ovarian
# [12] = test system: HOP-92 NSCLC
# [13] = test system: T-47D breast
# [14] = test system: SF-268 CNS
# [15] = test system: OVCAR-5 ovarian
# [16] = test system: CAKI-1 renal
# [17] = test system: SW-620 colon
# [18] = test system: KM12 colon
# [19] = test system: SK-OV-3 ovarian
# [20] = test system: SR leukemia
# [21] = test system: SF-295 CNS
# [22] = test system: MDA-MB-231 breast
# [23] = test system: PC-3 prostate
# [24] = test system: EKVX NSCLC
# [25] = test system: RPMI-8226 leukemia
# [26] = test system: HT29 colon
# [27] = test system: HCT-15 colon
# [28] = test system: A498 renal
# [29] = test system: UACC-257 melanoma
# [30] = test system: K-562 leukemia
# [31] = test system: RXF 393 renal
# [32] = test system: SNB-19 CNS
# [33] = test system: COLO 205 colon
# [34] = test system: LOX IMVI melanoma
# [35] = test system: HS 578T breast
# [36] = test system: SNB-75 CNS
# [37] = test system: UO-31 renal
# [38] = test system: CCRF-CEM leukemia
# [39] = test system: MALME-3M melanoma
# [40] = test system: NCI-H226 lung
# [41] = test system: 786-0 renal
# [42] = test system: NCI-H23 lung
# [43] = test system: HCC-2998 colon
# [44] = test system: HOP-62 NSCLC
# [45] = test system: SK-MEL-2 melanoma
# [46] = test system: ACHN renal
# [47] = test system: MCF7 breast
# [48] = test system: UACC-62 melanoma
# [49] = test system: HL-60(TB) leukemia
# [50] = test system: OVCAR-3 ovarian
# [51] = test system: MOLT-4 leukemia
# [52] = test system: SN12C renal
# [53] = test system: DU-145 prostate
# [54] = test system: HCT-116 colon
# [55] = test system: NCI-H460 lung
# [56] = test system: OVCAR-4 ovarian
# [57] = test system: NCI/ADR-RES ovarian
# [58] = test system: A549 NSCLC
structure (smiles),measurement,setting,value
OCCn1cc(-c2cnc3nnn(Cc4ccc5ncccc5c4)c3n2)cn1,GI50,[1],> 100 µM
same,TGI,[1],> 100 µM
same,GI50,[2],> 100 µM
same,TGI,[2],> 100 µM
same,GI50,[3],> 100 µM
same,TGI,[3],> 100 µM
same,GI50,[4],> 100 µM
same,TGI,[4],> 100 µM
same,GI50,[5],> 100 µM
same,TGI,[5],> 100 µM
same,GI50,[6],> 100 µM
same,TGI,[6],> 100 µM
same,GI50,[7],> 100 µM
same,TGI,[7],> 100 µM
same,GI50,[8],> 100 µM
same,TGI,[8],> 100 µM
same,GI50,[9],> 100 µM
same,TGI,[9],> 100 µM
same,GI50,[10],> 100 µM
same,TGI,[10],> 100 µM
same,GI50,[11],> 100 µM
same,TGI,[11],> 100 µM
same,GI50,[12],13 µM
same,TGI,[12],> 100 µM
same,GI50,[13],> 100 µM
same,TGI,[13],> 100 µM
same,GI50,[14],> 100 µM
same,TGI,[14],> 100 µM
same,GI50,[15],> 100 µM
same,TGI,[15],> 100 µM
same,GI50,[16],> 100 µM
same,TGI,[16],> 100 µM
same,GI50,[17],> 100 µM
same,TGI,[17],> 100 µM
same,GI50,[18],> 100 µM
same,TGI,[18],> 100 µM
same,GI50,[19],> 100 µM
same,TGI,[19],> 100 µM
same,GI50,[20],> 100 µM
same,TGI,[20],> 100 µM
same,TGI,[21],> 100 µM
same,GI50,[22],> 100 µM
same,TGI,[22],> 100 µM
same,GI50,[23],> 100 µM
same,TGI,[23],> 100 µM
same,GI50,[24],> 100 µM
same,TGI,[24],> 100 µM
same,GI50,[25],> 100 µM
same,TGI,[25],> 100 µM
same,GI50,[26],> 100 µM
same,TGI,[26],> 100 µM
same,GI50,[27],> 100 µM
same,TGI,[27],> 100 µM
same,GI50,[28],34.3 µM
same,TGI,[28],> 100 µM
same,GI50,[29],> 100 µM
same,TGI,[29],> 100 µM
same,GI50,[30],> 100 µM
same,TGI,[30],> 100 µM
same,GI50,[31],> 100 µM
same,TGI,[31],> 100 µM
same,GI50,[32],> 100 µM
same,TGI,[32],> 100 µM
same,GI50,[33],> 100 µM
same,TGI,[33],> 100 µM
same,GI50,[34],> 100 µM
same,TGI,[34],> 100 µM
same,GI50,[35],> 100 µM
same,TGI,[35],> 100 µM
same,GI50,[36],> 100 µM
same,TGI,[36],> 100 µM
same,GI50,[37],> 100 µM
same,TGI,[37],> 100 µM
same,GI50,[38],> 100 µM
same,TGI,[38],> 100 µM
same,GI50,[39],> 100 µM
same,TGI,[39],> 100 µM
same,GI50,[40],> 100 µM
same,TGI,[40],> 100 µM
same,GI50,[41],> 100 µM
same,TGI,[41],> 100 µM
same,GI50,[42],> 100 µM
same,TGI,[42],> 100 µM
same,GI50,[43],> 100 µM
same,TGI,[43],> 100 µM
same,GI50,[44],> 100 µM
same,TGI,[44],> 100 µM
same,GI50,[45],> 76.2 µM
same,TGI,[45],> 100 µM
same,GI50,[46],> 100 µM
same,TGI,[46],> 100 µM
same,GI50,[47],> 100 µM
same,TGI,[47],> 100 µM
same,GI50,[48],> 100 µM
same,TGI,[48],> 100 µM
same,GI50,[49],> 100 µM
same,TGI,[49],> 100 µM
same,GI50,[50],> 100 µM
same,TGI,[50],> 100 µM
same,GI50,[51],> 100 µM
same,TGI,[51],> 100 µM
same,GI50,[52],> 100 µM
same,TGI,[52],> 100 µM
same,GI50,[53],> 100 µM
same,TGI,[53],> 100 µM
same,GI50,[54],> 100 µM
same,TGI,[54],> 100 µM
same,GI50,[55],> 100 µM
same,TGI,[55],> 100 µM
same,GI50,[56],> 100 µM
same,TGI,[56],> 100 µM
same,GI50,[57],> 100 µM
same,TGI,[57],> 100 µM
same,GI50,[58],> 100 µM
same,TGI,[58],> 100 µM
